The results in this text go back to doi:10.1101/2023.10.01.560353v1 (bioRxiv, 2023).

Each structure is given as a SMILES string. Converted amounts (≈) assume the structure as drawn. Peptide text beside a SMILES is read from it.

For this assay, the system named is 11 clinically relevant bacterial pathogens. Kind of assay: MIC over the panel of pathogens. Type of assay: cell-based. The note with it: Table S17; lowest MIC over the strains tested.
Take `CC[C@H](C)[C@H](NC(=O)[C@H](Cc1ccccc1)NC(=O)[C@@H](N)CC(C)C)C(=O)NCC(=O)N[C@@H](CC(C)C)C(=O)N[C@H](C(=O)N[C@@H](CC(N)=O)C(=O)N[C@@H](CC(C)C)C(=O)N[C@@H](CC(C)C)C(=O)NCC(=O)N[C@@H](CC(C)C)C(=O)N[C@@H](CC(C)C)C(=O)O)[C@@H](C)O` [Mammuthusin-4] (H-LFIGLTNLLGLL-OH): the “MIC (lowest MIC value obtained in the antimicrobial activity assays)” value (“MIC” for short) came out at 2000 mM (≈ 2570 mg/mL).
Turning to `CC[C@H](C)[C@H](NC(=O)[C@@H](NC(=O)[C@H](Cc1c[nH]c2ccccc12)NC(=O)[C@H](CCCCN)NC(=O)[C@@H](N)CCCCN)C(C)C)C(=O)N[C@@H](CCCCN)C(=O)N[C@@H](CO)C(=O)N[C@H](C(=O)N[C@H](C(=O)N[C@@H](Cc1ccccc1)C(=O)N[C@@H](Cc1ccccc1)C(=O)N[C@@H](CCCCN)C(=O)O)C(C)C)C(C)C` [Hesperelin-2] (H-KKWVIKSVVFFK-OH), the “MIC” value is 8000 mM (≈ 12100 mg/mL).
As for `CC[C@H](C)[C@H](NC(=O)[C@@H](NC(=O)[C@H](CCSC)NC(=O)[C@@H](N)Cc1c[nH]c2ccccc12)[C@@H](C)O)C(=O)N[C@@H](Cc1c[nH]cn1)C(=O)N[C@@H](C)C(=O)N[C@@H](CC(C)C)C(=O)N[C@@H](CCCCN)C(=O)N[C@@H](CC(C)C)C(=O)N[C@@H](CO)C(=O)N[C@@H](CC(C)C)C(=O)N[C@@H](CO)C(=O)N[C@@H](Cc1ccccc1)C(=O)N[C@@H](CCCCN)C(=O)N[C@@H](CC(C)C)C(=O)O` [Mammutin-1] (H-WMTIHALKLSLSFKL-OH), the “MIC” value is 2000 mM (≈ 3580 mg/mL).
As for `CC(C)C[C@H](NC(=O)[C@H](CC(C)C)NC(=O)[C@@H](NC(=O)[C@H](CCCNC(=N)N)NC(=O)[C@H](C)NC(=O)[C@H](Cc1ccccc1)NC(=O)[C@H](CCCNC(=N)N)NC(=O)[C@H](CO)NC(=O)[C@H](Cc1c[nH]c2ccccc12)NC(=O)[C@H](CCCNC(=N)N)NC(=O)[C@H](CC(C)C)NC(=O)[C@H](CCCCN)NC(=O)[C@H](CC(C)C)NC(=O)[C@@H](N)Cc1ccccc1)C(C)C)C(=O)O` [Equusin-1] (H-FLKLRWSRFARVLL-OH), the “MIC” value is 1000 mM (≈ 1810 mg/mL).
With `CC[C@H](C)[C@H](NC(=O)[C@H](CC(N)=O)NC(=O)[C@H](CC(C)C)NC(=O)[C@@H](NC(=O)[C@H](Cc1ccccc1)NC(=O)[C@@H]1CCCN1C(=O)[C@@H]1CCCN1C(=O)[C@@H](NC(=O)[C@H](CO)NC(=O)[C@H](CC(C)C)NC(=O)[C@H](CCCCN)NC(=O)[C@H](CCCCN)NC(=O)[C@H](Cc1ccc(O)cc1)NC(=O)[C@@H](NC(=O)[C@@H](N)CCCCN)[C@@H](C)CC)[C@@H](C)O)[C@@H](C)O)C(=O)N[C@@H](CCCNC(=N)N)C(=O)N[C@H](C(=O)N[C@@H](CC(C)C)C(=O)N1CCC[C@H]1C(=O)N[C@@H](CCCCN)C(=O)N[C@H](C(=O)N[C@@H](CCCCN)C(=O)N[C@@H](Cc1ccccc1)C(=O)N1CCC[C@H]1C(=O)N[C@@H](CCCCN)C(=O)O)C(C)C)[C@@H](C)O` [Mylodonin-3] (H-KIYKKLSTPPFTLNIRTLPKVKFPK-OH), the “MIC” value was found to be 16000 mM (≈ 47300 mg/mL).
As to `CC[C@H](C)[C@H](NC(=O)CNC(=O)[C@H](Cc1c[nH]cn1)NC(=O)[C@H](CC(N)=O)NC(=O)[C@H](CCCCN)NC(=O)[C@H](CCC(N)=O)NC(=O)[C@@H](N)CCCNC(=N)N)C(=O)N[C@@H](Cc1c[nH]cn1)C(=O)N[C@@H](Cc1ccccc1)C(=O)N[C@@H](CCCNC(=N)N)C(=O)N[C@H](C(=O)N[C@@H](CC(C)C)C(=O)N[C@@H](C)C(=O)N[C@@H](CCCCN)C(=O)N[C@@H](C)C(=O)N[C@@H](CC(C)C)C(=O)N[C@@H](CCCNC(=N)N)C(=O)O)C(C)C` [Hesperelin-3] (H-RQKNHGIHFRVLAKALR-OH), the “MIC” value turned out to be 64000 mM (≈ 131000 mg/mL).
